Assay results as given in patent EP0041047A2, “Dioxide compounds, process for their preparation and their use” (CIBA-GEIGY AG, priority 1980, dated 1981).

Tests used:
[1] = system: Escherichia coli 205 R^+ TEM; assay: Protection of infected mice, subcutaneous application (ED50); assay type: in vivo, Maus
Description: (§1) Aufgrund dieser ß-Lactamase-inhibierenden Wirkung erhöhen die Verbindungen der vorliegenden Erfindung die Wirkung von β-Lactamantibiotika in vitro und in vivo, wie durch Vergleich der antibiotischen Wirkungen von Verbindungen der vorliegenden Erfindung und von β-Lactamantibiotika allein und in Kombination miteinander festgestellt werden kann. Beispielsweise liegen in vitro die MIC-Werte von 1:1 Kombinationen der erfindungsgemässen Verbindung der Formel (I), worin R1 Hydroxy und R2 Carboxy bedeuten, oder des Natriumsalzes davon mit Ampicillin, Cefsulodin (CGP7174/E) oder Cefotiam (CGP14221/E) gegen eine Reihe der obengenannten ß-Lactamase produzierenden Mikroorganismen signifikant niedriger als die MIC-Werte der Einzelverbindungen. In vivo, beispielsweise bei subcutaner Applikation an Mäusen, die mit ß-Lactamase produzierenden Mikroorganismen infiziert wurden, z.B. mit Escherichia coli 205 R^+ TEM oder Morganella morganii 2359, wurde eine signifikante Erniedrigung der ED50-Werte gegenüber denjenigen der Einzelkomponenten festgestellt. Einige Werte sind in der folgenden Tabelle zusammengestellt: […]

[2] = system: Morganella morganii 2359; assay: as above; assay type: in vivo; conditions: infecting microorganism Morganella morg. 2359
Description: as §1

| Compound | ED50 ([1]; Escherichia coli, sc, read-out: s.c. ED50 (mg/kg, Maus)) | ED50 ([2]; Morganella morganii, sc, Maus) | s.c. ED50 (mg/kg, Maus) ([1]; Maus, s.c., infecting microorganism Esch.coli: 205 RT) | s.c. ED50 (mg/kg, Maus) [2] |
| --- | --- | --- | --- | --- |
| CN(C)CCn1nnnc1SCC1=C(C(=O)O)N2C(=O)[C@@H](NC(=O)Cc3csc(N)n3)[C@H]2SC1 [B, Cefotiam] | 70 mg/kg | 75 mg/kg | – | – |
| (3R, 5R, 6R)-2,2-Dimethyl-6-hydroxymethylpenam-3-carbonsäure-1,1-dioxid-natriumsalz | – | – | 100 mg/kg | 100 mg/kg |
